Measurements taken from the kinase profiling compilation of Christmann-Franck et al. (2016).

Columns and labels:
Test in all cases: radiometric filter-binding kinase assay, Kinase HotSpot
Settings in all cases: compound 0.5 µM; ATP 10 µM
[1] = molecular target: ALK (human) (UniProt Q9UM73)
[2] = tested on: ARAF (human), P10398 [Y301D/Y302D]
[3] = molecular target: AURKB (human) (UniProt Q96GD4)
[4] = molecular target: BRAF (human) (UniProt P15056)
[5] = molecular target: CAMK1G (human) (UniProt Q96NX5)
[6] = molecular target: CAMKK2 (human) (UniProt Q96RR4)
[7] = molecular target: CDK2 CCNA2 (human) (UniProt P24941+P20248)
[8] = molecular target: CSNK1D (human) (UniProt P48730)
[9] = molecular target: CSNK1G3 (human) (UniProt Q9Y6M4)
[10] = molecular target: CSNK2A2 (human) (UniProt P19784)
[11] = molecular target: DMPK (human) (UniProt Q09013)
[12] = molecular target: EPHA6 (human) (UniProt Q9UF33)
[13] = molecular target: EPHA8 (human) (UniProt P29322)
[14] = molecular target: EPHB1 (human) (UniProt P54762)
[15] = molecular target: FLT1 (human) (UniProt P17948)
[16] = molecular target: GRK7 (human) (UniProt Q8WTQ7)
[17] = molecular target: HIPK3 (human) (UniProt Q9H422)
[18] = molecular target: IRAK4 (human) (UniProt Q9NWZ3)
[19] = molecular target: JAK2 JH1 JH2 (human) (UniProt O60674)
[20] = molecular target: MAP3K2 (human) (UniProt Q9Y2U5)
[21] = molecular target: MAP3K7 TAB1 (human) (UniProt O43318+Q15750)
[22] = molecular target: MAP3K8 (human) (UniProt P41279)
[23] = molecular target: MAPK8 (human) (UniProt P45983)
[24] = molecular target: MARK3 (human) (UniProt P27448)
[25] = molecular target: MATK (human) (UniProt P42679)
[26] = molecular target: MELK (human) (UniProt Q14680)
[27] = molecular target: MUSK (human) (UniProt O15146)
[28] = molecular target: MYO3B (human) (UniProt Q8WXR4)
[29] = molecular target: PDGFRB (human) (UniProt P09619)
[30] = molecular target: PKN1 (human) (UniProt Q16512)
[31] = molecular target: PKN2 (human) (UniProt Q16513)
[32] = molecular target: PRKACG (human) (UniProt P22612)
[33] = molecular target: SLK (human) (UniProt Q9H2G2)
[34] = molecular target: STK16 (human) (UniProt O75716)
[35] = molecular target: STK38 (human) (UniProt Q15208)
[36] = molecular target: TLK2 (human) (UniProt Q86UE8)
[37] = molecular target: ULK3 (human) (UniProt Q6PHR2)
[38] = molecular target: YES1 (human) (UniProt P07947)
[39] = molecular target: ABL1 (human) (UniProt P00519)
[40] = molecular target: EGFR (human) (UniProt P00533)
[41] = molecular target: LCK (human) (UniProt P06239)

Chain of PRKACG (human) (P22612 whole entry, looked up): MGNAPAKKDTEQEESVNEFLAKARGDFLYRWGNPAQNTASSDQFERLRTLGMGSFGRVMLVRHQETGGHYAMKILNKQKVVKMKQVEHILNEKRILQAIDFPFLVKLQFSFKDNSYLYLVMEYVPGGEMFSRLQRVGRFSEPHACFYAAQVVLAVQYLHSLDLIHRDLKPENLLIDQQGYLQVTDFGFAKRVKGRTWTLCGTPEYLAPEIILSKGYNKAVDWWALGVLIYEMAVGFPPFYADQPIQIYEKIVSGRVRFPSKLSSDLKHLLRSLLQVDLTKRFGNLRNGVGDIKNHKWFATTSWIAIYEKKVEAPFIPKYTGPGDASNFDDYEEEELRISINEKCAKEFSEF
Chain of MAP3K8 (human) (P41279 whole entry, looked up): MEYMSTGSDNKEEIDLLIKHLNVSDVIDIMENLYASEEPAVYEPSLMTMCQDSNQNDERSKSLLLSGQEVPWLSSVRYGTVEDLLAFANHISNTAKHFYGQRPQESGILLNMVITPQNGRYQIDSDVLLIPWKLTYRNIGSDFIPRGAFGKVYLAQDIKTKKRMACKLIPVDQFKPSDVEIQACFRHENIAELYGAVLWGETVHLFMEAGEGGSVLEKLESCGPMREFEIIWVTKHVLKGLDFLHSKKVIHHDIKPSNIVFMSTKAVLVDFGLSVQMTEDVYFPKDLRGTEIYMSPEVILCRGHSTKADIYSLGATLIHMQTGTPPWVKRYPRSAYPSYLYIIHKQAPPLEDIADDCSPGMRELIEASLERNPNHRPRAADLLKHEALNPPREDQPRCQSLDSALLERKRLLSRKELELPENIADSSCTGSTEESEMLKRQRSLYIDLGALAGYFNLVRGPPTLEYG
Chain of PKN1 (human) (Q16512 whole entry, looked up): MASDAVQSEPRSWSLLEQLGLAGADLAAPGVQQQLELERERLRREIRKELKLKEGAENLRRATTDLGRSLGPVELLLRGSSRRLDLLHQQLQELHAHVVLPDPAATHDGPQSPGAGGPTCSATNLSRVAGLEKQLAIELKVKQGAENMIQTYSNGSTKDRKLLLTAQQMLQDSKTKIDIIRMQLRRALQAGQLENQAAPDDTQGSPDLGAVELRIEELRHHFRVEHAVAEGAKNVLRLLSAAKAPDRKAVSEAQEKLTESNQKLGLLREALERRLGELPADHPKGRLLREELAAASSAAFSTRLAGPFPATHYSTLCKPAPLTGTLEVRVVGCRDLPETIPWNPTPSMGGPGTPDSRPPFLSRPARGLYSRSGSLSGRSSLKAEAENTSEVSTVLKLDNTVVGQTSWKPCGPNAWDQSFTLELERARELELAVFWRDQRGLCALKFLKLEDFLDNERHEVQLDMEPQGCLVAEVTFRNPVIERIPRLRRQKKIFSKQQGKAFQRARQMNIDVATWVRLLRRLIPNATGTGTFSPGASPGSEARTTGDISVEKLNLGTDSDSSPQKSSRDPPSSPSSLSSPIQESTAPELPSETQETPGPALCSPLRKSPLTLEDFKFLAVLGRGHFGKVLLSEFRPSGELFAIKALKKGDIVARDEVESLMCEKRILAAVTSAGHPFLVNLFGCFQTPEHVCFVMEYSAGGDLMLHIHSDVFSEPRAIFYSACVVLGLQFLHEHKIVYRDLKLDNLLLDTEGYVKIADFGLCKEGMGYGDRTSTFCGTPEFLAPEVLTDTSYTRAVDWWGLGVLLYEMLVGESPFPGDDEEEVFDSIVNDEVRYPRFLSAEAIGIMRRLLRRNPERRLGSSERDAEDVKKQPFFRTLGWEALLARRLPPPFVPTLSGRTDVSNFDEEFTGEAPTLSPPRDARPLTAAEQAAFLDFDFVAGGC
Chain of MATK (human) (P42679 whole entry, looked up): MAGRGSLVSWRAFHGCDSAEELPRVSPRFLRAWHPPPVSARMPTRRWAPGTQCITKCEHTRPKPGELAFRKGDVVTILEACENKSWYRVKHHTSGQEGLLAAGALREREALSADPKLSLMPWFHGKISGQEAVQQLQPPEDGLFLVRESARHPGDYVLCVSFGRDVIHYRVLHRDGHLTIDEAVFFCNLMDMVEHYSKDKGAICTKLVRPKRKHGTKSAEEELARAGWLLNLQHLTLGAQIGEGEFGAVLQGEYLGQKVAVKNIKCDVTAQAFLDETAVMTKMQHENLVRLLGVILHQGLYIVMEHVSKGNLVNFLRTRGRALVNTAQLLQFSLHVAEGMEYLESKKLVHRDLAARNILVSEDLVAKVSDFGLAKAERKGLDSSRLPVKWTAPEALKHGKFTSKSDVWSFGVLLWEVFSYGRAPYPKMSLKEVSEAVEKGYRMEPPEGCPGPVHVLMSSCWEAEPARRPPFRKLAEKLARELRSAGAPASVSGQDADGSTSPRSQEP
Chain of CSNK1G3 (human) (Q9Y6M4 whole entry, looked up): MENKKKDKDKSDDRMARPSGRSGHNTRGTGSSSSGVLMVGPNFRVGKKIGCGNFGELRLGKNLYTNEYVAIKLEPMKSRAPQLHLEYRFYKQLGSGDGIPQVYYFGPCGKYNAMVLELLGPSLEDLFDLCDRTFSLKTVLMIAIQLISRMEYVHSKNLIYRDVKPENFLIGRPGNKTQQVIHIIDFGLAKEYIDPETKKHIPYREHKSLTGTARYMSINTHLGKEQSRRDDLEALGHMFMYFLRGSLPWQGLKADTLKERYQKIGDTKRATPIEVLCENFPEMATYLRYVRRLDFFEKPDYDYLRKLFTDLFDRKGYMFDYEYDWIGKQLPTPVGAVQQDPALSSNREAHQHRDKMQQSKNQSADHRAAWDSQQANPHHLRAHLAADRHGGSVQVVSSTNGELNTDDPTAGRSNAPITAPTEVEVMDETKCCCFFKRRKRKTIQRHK
Chain of EGFR (human) (P00533 whole entry, looked up): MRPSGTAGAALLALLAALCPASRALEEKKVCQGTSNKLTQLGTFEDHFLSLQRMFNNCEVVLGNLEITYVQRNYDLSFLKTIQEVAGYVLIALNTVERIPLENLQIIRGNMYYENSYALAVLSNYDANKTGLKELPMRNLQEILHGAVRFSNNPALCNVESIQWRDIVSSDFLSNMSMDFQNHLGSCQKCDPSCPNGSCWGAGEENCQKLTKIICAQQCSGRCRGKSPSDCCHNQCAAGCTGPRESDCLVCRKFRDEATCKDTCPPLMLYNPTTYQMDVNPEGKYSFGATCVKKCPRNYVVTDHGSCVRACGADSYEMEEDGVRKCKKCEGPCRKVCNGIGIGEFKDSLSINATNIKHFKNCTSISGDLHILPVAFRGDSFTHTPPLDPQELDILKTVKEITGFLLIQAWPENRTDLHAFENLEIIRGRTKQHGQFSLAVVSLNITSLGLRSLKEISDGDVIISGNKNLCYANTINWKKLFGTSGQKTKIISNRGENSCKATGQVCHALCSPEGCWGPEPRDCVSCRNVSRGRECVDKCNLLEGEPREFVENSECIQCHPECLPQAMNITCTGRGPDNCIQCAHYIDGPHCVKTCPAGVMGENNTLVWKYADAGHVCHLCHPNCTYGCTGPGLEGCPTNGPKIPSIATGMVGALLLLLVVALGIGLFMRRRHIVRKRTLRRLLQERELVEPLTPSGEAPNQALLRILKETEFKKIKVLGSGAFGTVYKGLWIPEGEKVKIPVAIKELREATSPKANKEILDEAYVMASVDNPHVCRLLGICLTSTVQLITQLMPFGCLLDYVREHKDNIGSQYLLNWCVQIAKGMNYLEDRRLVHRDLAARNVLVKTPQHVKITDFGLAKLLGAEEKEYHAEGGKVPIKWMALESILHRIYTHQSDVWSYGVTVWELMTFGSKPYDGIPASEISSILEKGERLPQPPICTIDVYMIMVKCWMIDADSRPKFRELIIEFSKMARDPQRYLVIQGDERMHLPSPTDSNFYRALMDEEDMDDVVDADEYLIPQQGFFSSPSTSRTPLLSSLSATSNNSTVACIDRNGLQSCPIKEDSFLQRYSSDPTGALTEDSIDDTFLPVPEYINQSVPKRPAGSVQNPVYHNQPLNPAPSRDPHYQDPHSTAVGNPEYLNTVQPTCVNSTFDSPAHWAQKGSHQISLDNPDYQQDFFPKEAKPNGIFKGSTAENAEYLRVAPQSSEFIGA
Chain of ULK3 (human) (Q6PHR2 whole entry, looked up): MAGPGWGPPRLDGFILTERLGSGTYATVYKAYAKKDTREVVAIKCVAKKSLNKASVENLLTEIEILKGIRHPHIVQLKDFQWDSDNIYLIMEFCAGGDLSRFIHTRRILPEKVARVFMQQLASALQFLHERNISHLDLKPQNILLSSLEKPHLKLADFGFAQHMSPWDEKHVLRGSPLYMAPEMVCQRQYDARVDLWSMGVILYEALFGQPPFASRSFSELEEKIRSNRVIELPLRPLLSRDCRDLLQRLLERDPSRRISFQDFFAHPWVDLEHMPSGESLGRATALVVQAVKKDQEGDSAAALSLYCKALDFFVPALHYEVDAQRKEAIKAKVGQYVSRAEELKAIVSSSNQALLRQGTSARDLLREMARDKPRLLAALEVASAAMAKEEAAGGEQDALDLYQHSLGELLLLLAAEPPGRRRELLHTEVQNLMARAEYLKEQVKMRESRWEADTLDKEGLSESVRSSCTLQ
Chain of CDK2 CCNA2 (human) (P20248 whole entry, looked up, other chains not shown): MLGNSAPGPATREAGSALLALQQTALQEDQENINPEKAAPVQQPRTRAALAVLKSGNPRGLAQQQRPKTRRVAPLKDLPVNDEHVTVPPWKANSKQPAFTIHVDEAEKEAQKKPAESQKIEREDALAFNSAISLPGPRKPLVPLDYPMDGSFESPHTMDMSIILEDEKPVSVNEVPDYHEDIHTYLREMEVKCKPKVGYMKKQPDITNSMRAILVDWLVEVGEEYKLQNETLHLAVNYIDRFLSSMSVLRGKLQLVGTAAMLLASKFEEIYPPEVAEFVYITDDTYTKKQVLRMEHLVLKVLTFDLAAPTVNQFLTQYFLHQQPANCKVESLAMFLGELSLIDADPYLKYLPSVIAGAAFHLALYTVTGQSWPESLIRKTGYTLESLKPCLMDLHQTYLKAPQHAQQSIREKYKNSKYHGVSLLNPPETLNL

| Structure (SMILES) | residual activity [1] [%] | residual activity [3] [%] | residual activity [5] [%] | residual activity [6] [%] | residual activity [7] [%] | residual activity [8] [%] | residual activity [9] [%] | residual activity [10] [%] | residual activity [11] [%] | residual activity [12] [%] | residual activity [13] [%] | residual activity [14] [%] | residual activity [15] [%] | residual activity [16] [%] | residual activity [17] [%] | residual activity [18] [%] | residual activity [19] [%] | residual activity [20] [%] | residual activity [21] [%] | residual activity [22] [%] | further results |
| --- | --- | --- | --- | --- | --- | --- | --- | --- | --- | --- | --- | --- | --- | --- | --- | --- | --- | --- | --- | --- | --- |
| COc1cc2ncnc(Nc3ccc(F)c(Cl)c3)c2cc1OCCCN1CCOCC1 | 98.8 | 106 | 103 | 103 | 95.9 | 90.4 | 103 | 88.6 | 90.1 | 28.9 | 84.5 | 94.8 | 98.3 | 96.2 | 103 | 78.8 | 99.8 | 109 | 91.3 | 95.7 | residual activity [2]: 95.3%; residual activity [4]: 95.8%; residual activity [23]: 93.1%; residual activity [24]: 94.5%; residual activity [25]: 86.4%; residual activity [26]: 77.7%; residual activity [27]: 98.1%; residual activity [28]: 91.4%; residual activity [29]: 93.9%; residual activity [30]: 105%; residual activity [31]: 93.1%; residual activity [32]: 107%; residual activity [33]: 83.7%; residual activity [34]: 96.8%; residual activity [35]: 105%; residual activity [36]: 80.4%; residual activity [37]: 108%; residual activity [38]: 74.4% |
| Cc1cc2ncc(-c3ccccc3)nc2cc1C | 98 | 85.4 | 101 | 91.8 | 99.3 | 90.7 | 99 | 90.3 | 102 | 93 | 94.5 | 91.1 | 85.2 | 102 | 94.4 | 93.1 | 97.3 | 105 | 89.9 | 106 | residual activity [39]: 99.6%; residual activity [40]: 84.5%; residual activity [41]: 99.5%; residual activity [23]: 101%; residual activity [24]: 101%; residual activity [25]: 95.4%; residual activity [26]: 91.1%; residual activity [27]: 102%; residual activity [28]: 99%; residual activity [29]: 89.1%; residual activity [30]: 92.5%; residual activity [31]: 104%; residual activity [32]: 95.8%; residual activity [33]: 91.9%; residual activity [34]: 108%; residual activity [35]: 94.7%; residual activity [36]: 100%; residual activity [37]: 86.4%; residual activity [38]: 102% |
| COc1cc2nccc(Oc3ccc(NC(=S)NC(=O)c4ccccc4C)cc3)c2cc1OC | 80.8 | 4.31 | 99.5 | 75 | 94.2 | 212 | 93.3 | 96.6 | 102 | 33 | 84.1 | 98.5 | 89.8 | 95.6 | 95.2 | 82.4 | 97.7 | 83.1 | 95.6 | 94.1 | residual activity [39]: 50.6%; residual activity [40]: 89.7%; residual activity [41]: 1.62%; residual activity [23]: 81.3%; residual activity [24]: 79.2%; residual activity [25]: 93%; residual activity [26]: 98.5%; residual activity [27]: 95.9%; residual activity [28]: 83.4%; residual activity [29]: 26.7%; residual activity [30]: 99.2%; residual activity [31]: 109%; residual activity [32]: 107%; residual activity [33]: 6.2%; residual activity [34]: 101%; residual activity [35]: 107%; residual activity [36]: 85.3%; residual activity [37]: 86.8%; residual activity [38]: 23.8% |
| NC(=O)c1ccc(N(C(N)=O)c2c(F)cccc2F)nc1-c1ccc(F)cc1F | 99.6 | 91.3 | 108 | 101 | 87.8 | 89.8 | 103 | 109 | 104 | 95 | 98.7 | 100 | 102 | 108 | 98.4 | 87.5 | 107 | 122 | 105 | 94.3 | residual activity [39]: 99.7%; residual activity [40]: 92.7%; residual activity [41]: 86.3%; residual activity [23]: 100%; residual activity [24]: 98.1%; residual activity [25]: 77.6%; residual activity [26]: 87.1%; residual activity [27]: 102%; residual activity [28]: 99.2%; residual activity [29]: 62.8%; residual activity [30]: 101%; residual activity [31]: 99.7%; residual activity [32]: 109%; residual activity [33]: 90.7%; residual activity [34]: 100%; residual activity [35]: 101%; residual activity [36]: 95.7%; residual activity [37]: 101%; residual activity [38]: 97.8% |
| Oc1ccc(-c2nc(-c3ccc(F)cc3)c(-c3ccncc3)[nH]2)cc1 | 104 | 104 | 98.5 | 118 | 101 | 16.8 | 102 | 95.9 | 106 | 57.3 | 93.6 | 96.8 | 90.6 | 105 | 98.3 | 124 | 96.2 | 95 | 97.7 | 96.6 | residual activity [2]: 31.1%; residual activity [4]: 60.5%; residual activity [41]: 92.6%; residual activity [23]: 98%; residual activity [24]: 105%; residual activity [25]: 90.3%; residual activity [26]: 102%; residual activity [27]: 86.8%; residual activity [28]: 101%; residual activity [29]: 104%; residual activity [30]: 78.9%; residual activity [31]: 101%; residual activity [32]: 78.4%; residual activity [33]: 91.2%; residual activity [34]: 111%; residual activity [35]: 99.8%; residual activity [36]: 97.4%; residual activity [37]: 85.5%; residual activity [38]: 84.7% |
